Source: paper PMC4014597 (PLoS ONE, 2014)

Assays:
[1] = target: T1, C-terminal catalytic domain of human DNMT3A (hDNMT3A) (Homo sapiens, UniProt Q9Y6K1); experiment: DNMT3A assay (restriction-based fluorescence assay); type: biochemical; conditions: for inhibition at 100 µM: 100 µM compound; for inhibition at 100 µM / inhibition at 10 µM / inhibition at 32 µM / inhibition at 3.2 µM: read-out: % inhibition ± SD hDNMT3A
T1 construct: catalytic domain of human DNMT3A (residues 623–908), produced as described; made in house
T1 sequence (Q9Y6K1 627-912): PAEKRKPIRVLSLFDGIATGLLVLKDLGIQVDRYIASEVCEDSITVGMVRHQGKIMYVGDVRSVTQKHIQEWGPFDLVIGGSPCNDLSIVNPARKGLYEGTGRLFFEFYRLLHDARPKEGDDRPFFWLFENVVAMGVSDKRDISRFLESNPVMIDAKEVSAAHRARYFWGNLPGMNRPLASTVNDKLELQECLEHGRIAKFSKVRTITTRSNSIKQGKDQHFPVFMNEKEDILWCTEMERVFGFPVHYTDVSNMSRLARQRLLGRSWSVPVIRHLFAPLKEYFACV
From the text: DNMT3A enzyme inhibition was adapted from the restriction-based fluorescence assay protocol described in Ceccaldi et al.. Briefly, a 5'-labelled biotin oligonucleotide is hybridized to its complementary strand labelled with 6-carboxyfluorescein at the 3′-end into a 384 well microplate (black Optiplates; Perkin Elmer) pre-coated with avidin. The duplex contains a unique CpG site overlapping with a restriction site of a methylation sensitive restriction enzyme. The C-terminal catalytic domain of human DNMT3A (residues 623–908), produced as described, was added in each well (200 ng/well) and mixed with the chemical compounds at desired concentrations and freshly prepared AdoMet (20 µM final concentration) to start the reaction in a total volume of 50 µL. After 1 hour incubation at 37°C each well were washed three times with PBS, 0.05% Tween-20, 500 mM NaCl and three more times with PBST. Specific fluorescent signals were detected with the methylation-sensitive restriction enzyme HpyCH4IV (NEB) as described and measured on a Perkin Elmer Envision detector. The percentage of inhibition is reported. The formula used to calculate the percentage of inhibition is [(X-Y)/X]×100, where X is the signal determined in the absence of the inhibitor and Y is the signal obtained in the presence of the inhibitor. […] The non-linear regression fittings with sigmoidal dose-response (variable slope) were performed with GraphPad Prism 4.03 (GraphPad Software).

[2] = target: T2, human G9a-like protein (GLP) (Homo sapiens, UniProt Q9H9B1); experiment: GLP assay (histone methylation inhibition); type: biochemical; conditions: 8 μM inhibitor; read-out: Percent of GLP inhibition
T2 construct: catalytic SET domain (residues 734-1235; pXC758) were purified as described; made in house
T2 sequence (Q9H9B1 765-1266): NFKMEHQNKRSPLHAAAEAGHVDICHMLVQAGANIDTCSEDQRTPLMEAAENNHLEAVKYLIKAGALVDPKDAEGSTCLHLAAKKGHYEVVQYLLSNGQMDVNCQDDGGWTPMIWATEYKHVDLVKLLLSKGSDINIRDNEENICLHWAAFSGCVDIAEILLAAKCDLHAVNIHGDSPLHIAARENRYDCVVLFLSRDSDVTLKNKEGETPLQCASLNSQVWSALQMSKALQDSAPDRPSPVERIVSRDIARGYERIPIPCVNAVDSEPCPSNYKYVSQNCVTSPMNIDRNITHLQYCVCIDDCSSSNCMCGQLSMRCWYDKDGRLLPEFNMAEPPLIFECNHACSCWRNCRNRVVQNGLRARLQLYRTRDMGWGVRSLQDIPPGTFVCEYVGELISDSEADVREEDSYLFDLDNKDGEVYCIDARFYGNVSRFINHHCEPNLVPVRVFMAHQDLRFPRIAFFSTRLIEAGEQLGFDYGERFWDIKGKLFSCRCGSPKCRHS
Method: GLP Assay. Recombinant human G9a-like protein (GLP) C-terminal fragment containing both the ankyrin repeats and catalytic SET domain (residues 734-1235; pXC758) were purified as described. For histone methylation inhibition, the assay was performed in 20 μL reaction containing 4.6 mM [methyl-^3H]-AdoMet, 50 μg/mL histone from calf thymus (SIGMA), 10 μg/mL (0.17 μM) GLP, 100 mM KCl, 5 mM (DTT) and 50 mM Tris-HCl pH 8.5. GLP was pre-incubated with AdoMet and 8 µM inhibitors for 5 min at 30 °C before the addition of the histone substrate. After incubation (5 min), the reaction was terminated by the addition of 20% trichloroacetic acid (TCA, Fisher Scientific). The reaction mixture was spotted on GF/A paper circles (Whatman), washed three times with 3 mL of 10% TCA and once with 3 mL of ethanol. The dried circles were subjected to liquid-scintillation counting with Cytoscint scintillant.

human DNMT1 (hDNMT1) = target: T3, human DNMT1 (hDNMT1) (Homo sapiens, UniProt P26358); experiment: DNMT1 assay (radioactive Flashplate methylation assay); type: biochemical; conditions: 100 µM compound; for inhibition at 100 µM: read-out: % inhibition ± SD hDNMT1
T3 construct: His; made in house
T3 sequence (P26358 whole entry): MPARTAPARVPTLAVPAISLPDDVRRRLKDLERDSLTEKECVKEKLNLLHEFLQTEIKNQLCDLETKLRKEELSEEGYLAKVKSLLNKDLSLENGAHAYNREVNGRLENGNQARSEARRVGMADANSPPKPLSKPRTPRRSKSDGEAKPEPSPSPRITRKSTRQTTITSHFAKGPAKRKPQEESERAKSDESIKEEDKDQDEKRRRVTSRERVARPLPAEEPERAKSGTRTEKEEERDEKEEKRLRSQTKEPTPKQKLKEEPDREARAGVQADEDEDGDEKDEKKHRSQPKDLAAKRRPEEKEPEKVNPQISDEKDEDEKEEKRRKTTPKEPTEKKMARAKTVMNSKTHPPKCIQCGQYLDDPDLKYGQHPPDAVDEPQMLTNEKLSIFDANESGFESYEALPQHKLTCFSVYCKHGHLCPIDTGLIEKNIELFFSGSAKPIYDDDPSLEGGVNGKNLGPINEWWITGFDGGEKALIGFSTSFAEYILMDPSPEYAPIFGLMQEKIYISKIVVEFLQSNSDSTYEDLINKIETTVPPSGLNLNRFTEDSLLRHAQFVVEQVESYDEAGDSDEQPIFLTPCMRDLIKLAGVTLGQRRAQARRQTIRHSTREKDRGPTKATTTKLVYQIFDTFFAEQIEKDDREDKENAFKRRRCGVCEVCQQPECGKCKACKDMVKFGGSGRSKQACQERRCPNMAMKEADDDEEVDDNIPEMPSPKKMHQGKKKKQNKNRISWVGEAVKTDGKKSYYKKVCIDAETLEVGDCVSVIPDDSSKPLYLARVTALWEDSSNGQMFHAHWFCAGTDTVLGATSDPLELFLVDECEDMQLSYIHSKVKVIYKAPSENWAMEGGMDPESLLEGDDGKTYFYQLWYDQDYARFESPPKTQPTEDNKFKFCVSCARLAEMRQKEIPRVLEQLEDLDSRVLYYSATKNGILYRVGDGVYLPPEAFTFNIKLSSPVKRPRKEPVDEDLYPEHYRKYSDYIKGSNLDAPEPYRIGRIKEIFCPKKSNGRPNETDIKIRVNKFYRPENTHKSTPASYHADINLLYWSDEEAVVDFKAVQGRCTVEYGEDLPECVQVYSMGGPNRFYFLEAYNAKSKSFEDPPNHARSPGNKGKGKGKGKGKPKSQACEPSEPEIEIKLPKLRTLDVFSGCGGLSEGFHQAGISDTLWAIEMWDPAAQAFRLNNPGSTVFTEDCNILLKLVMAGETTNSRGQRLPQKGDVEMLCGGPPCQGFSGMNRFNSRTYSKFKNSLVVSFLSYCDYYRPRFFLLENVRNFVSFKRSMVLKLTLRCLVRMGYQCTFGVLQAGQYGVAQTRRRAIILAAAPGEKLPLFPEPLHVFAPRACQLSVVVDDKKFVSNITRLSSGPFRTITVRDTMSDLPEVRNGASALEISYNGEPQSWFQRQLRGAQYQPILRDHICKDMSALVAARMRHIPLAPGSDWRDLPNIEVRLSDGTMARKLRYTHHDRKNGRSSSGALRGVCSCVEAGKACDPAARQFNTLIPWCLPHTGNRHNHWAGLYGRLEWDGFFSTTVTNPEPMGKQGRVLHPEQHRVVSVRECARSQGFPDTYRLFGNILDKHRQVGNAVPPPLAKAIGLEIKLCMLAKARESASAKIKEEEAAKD
Method: His-DNMT1 (182 kDa, human) was cloned, expressed and purified as described by Lee et al.. The DNMT1 assay was performed according to Gros et al.. Briefly, the reaction was started by addition of 90 nM of DNMT1 on a mix containing the tested compound (up to 1% DMSO), 1 µM of a AdoMet/[methyl-^3H]-AdoMet mix in a ratio of 3-to-1 (isotopic dilution 1*:3) and 0.3 µM of biotinylated DNA duplex in 10 µL final volume. The reaction was incubated at 37°C for 2 h in reaction buffer (20 mM HEPES pH 7.2, 1 mM EDTA, 50 mM KCl, 25 µg/mL BSA). 8 µL are then transferred into a streptavidin-coated Flashplate PLUS (PerkinElmer) containing 190 µL of 20 µM AdoHcy (Sigma-Aldrich) in 50 mM Tris-HCl pH 7.4. The Flashplate was agitated at room temperature for 1 h, washed three times with 200 µL of 0.05% Tween-20 in 50 mM Tris-HCl pH 7.4 and read in 200 µL of 50 mM Tris-HCl pH 7.4 on TopCount NXT (PerkinElmer). Percentages of inhibition were calculated with the same formula as in DNMT3A assay.

RAJI cells = tested on: RAJI cells; parameters: method as in PMID 24387159; conditions: 48 h; read-out: IC50 (mean ± SD) cell viability RAJI; cited from earlier work
[3] = tested on: CMV-luc construct in KG-1 cells; experiment: CMV-luc assay (luciferase re-expression from methylated CMV promoter); type: cell-based; conditions: 24 h
U-937 cells = tested on: U-937 cells; parameters: method as in PMID 24387159; conditions: 48 h; read-out: IC50 (mean ± SD) cell viability U-937; cited from earlier work
Human G9a = target: T4, Human G9a (Homo sapiens, UniProt Q96KQ7); experiment: G9a assay (3H-AdoMet filter-binding); type: biochemical; conditions: 10-dose IC50 mode, 2-fold serial dilution starting at 400 µM
T4 sequence (Q96KQ7 786-1210 limits assumed): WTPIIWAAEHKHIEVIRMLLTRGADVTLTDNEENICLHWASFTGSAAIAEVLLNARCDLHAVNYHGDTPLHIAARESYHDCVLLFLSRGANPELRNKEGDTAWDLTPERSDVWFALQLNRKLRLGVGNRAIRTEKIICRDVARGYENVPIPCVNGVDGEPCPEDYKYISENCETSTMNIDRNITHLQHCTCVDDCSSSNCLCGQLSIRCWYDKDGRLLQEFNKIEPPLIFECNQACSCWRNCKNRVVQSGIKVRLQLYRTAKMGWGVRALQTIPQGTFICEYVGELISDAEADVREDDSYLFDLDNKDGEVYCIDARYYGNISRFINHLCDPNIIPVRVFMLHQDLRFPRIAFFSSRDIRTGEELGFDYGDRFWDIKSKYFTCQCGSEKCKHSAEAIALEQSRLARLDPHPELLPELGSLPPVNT
Method: The reaction buffer was 50 mM Tris-HCl, pH 8.5, 50 mM NaCl, 5 mM MgCl2, 1 mM dithiothreitol (DTT), 1 mM PMSF, and 1% DMSO. Standard substrate concentrations were 5 µM biotinylated H3 (1–21) peptide (AnaSpec) substrate and 0.1 mM AdoMet. For control compound IC50 determinations, the test compounds were diluted in DMSO and then added to the enzyme/substrate mixture in nanoliter amounts by using an acoustic technology (Echo 500; Lab-cyte). The reaction was initiated by the addition of ^3H-AdoMet, and incubated at 30°C for 1 h. The reaction was detected by a filter-binding method. Data analysis was performed using Graph Pad Prism software for curve fits, and GraFit (Erithacus) for global fit of kinetic studies.

| Structure (SMILES) | inhibition at 100 µM [1] [%] | inhibition at 100 µM (human DNMT1 (hDNMT1)) [%] | inhibition at 10 µM ([1]; 10 µM compound) [%] | inhibition at 32 µM ([1]; 32 µM compound) [%] | melting point [°C] | further results |
| --- | --- | --- | --- | --- | --- | --- |
| COc1cc2nc(N3CCCN(C)CC3)nc(NC3CCN(Cc4ccccc4)CC3)c2cc1OC [Compound 1, BIX-01294, reference compound] | 12 ± 3 | 30 |  |  |  | inhibition at 8 µM [2]: 91.7%; % inhibition ± SD hDNMT1 (human DNMT1 (hDNMT1); 100 µM): 35±8% |
| CN1CCN(c2nc(NC3CCN(Cc4ccccc4)CC3)c3ccccc3n2)CC1 [Compound 5] | 30 ± 8 | 0 | 0 | 14 ± 3 |  |  |
| c1ccc(CN2CCC(Nc3nc(N4CCCCC4)nc4ccccc34)CC2)cc1 [Compound 6] | 57 ± 8 | 0 | 14 ± 6 | 33 ± 6 |  | inhibition at 3.2 µM ([1]; 3.2 µM compound): 11 ± 5% |
| c1ccc(CN2CCC(Nc3nc(N4CCCCCC4)nc4ccccc34)CC2)cc1 [Compound 7] | 57 ± 3 | 0 | 16 ± 2 | 32 ± 3 | 119 to 122 | inhibition at 3.2 µM ([1]; 3.2 µM compound): 7 ± 2% |
| CC1CCN(c2nc(NC3CCN(Cc4ccccc4)CC3)c3ccccc3n2)CC1 [Compound 8] | 53 ± 3 | 0 | 14 ± 2 | 35 ± 5 | 106 to 108 | inhibition at 3.2 µM ([1]; 3.2 µM compound): 7 ± 1% |
| CC1CCCCN1c1nc(NC2CCN(Cc3ccccc3)CC2)c2ccccc2n1 (centres unmarked) [Compound 9] | 47 ± 5 | 0 | 5 ± 2 | 14 ± 7 | 128 to 129 | inhibition at 3.2 µM ([1]; 3.2 µM compound): 1 ± 1% |
| c1ccc(CN2CCC(Nc3nc(N4CCSCC4)nc4ccccc34)CC2)cc1 [Compound 11] | 42 ± 3 | 0 | 8 ± 2 |  | 155 to 157 |  |
| c1ccc(CN2CCC(Nc3nc(N4CCOCC4)nc4ccccc34)CC2)cc1 [Compound 12, N-(1-benzylpiperidin-4-yl)-2-morpholinoquinazolin-4-amine] | 7 | 0 |  |  |  |  |
| O=C(c1ccccc1)N1CCN(c2nc(NC3CCN(Cc4ccccc4)CC3)c3ccccc3n2)CC1 [Compound 15] | 23 ± 2 | 0 |  |  | 213 to 215 |  |
| OCCNc1nc(NC2CCN(Cc3ccccc3)CC2)c2ccccc2n1 [Compound 16] | 37 ± 4 | 0 | 8 ± 3 |  | 116 to 118 |  |
| CN(C)CCNc1nc(NC2CCN(Cc3ccccc3)CC2)c2ccccc2n1 [Compound 17] | 10 | 0 |  |  | 120 to 122 |  |
| CN(C)CCCNc1nc(NC2CCN(Cc3ccccc3)CC2)c2ccccc2n1 [Compound 18] | 8 ± 1 | 0 |  |  |  |  |
| Cc1cc(Nc2ccc(NC(=O)c3ccc(Nc4ccnc5ccccc45)cc3)cc2)nc(N)n1 [SGI-1027, reference compound] |  |  |  |  |  | IC50 (RAJI cells): 9.1 ± 0.8 µM; % inhibition ± SD hDNMT3A ([1]; 3.2 µM compound): 80±4%; % inhibition ± SD hDNMT3A ([1]; 10 µM compound): 72±6%; % inhibition ± SD hDNMT3A ([1]; 32 µM compound): 75±7%; fold-induction of the luciferase signal (CMV-luc) ([3]; 5 µM): 17 fold; fold-induction of the luciferase signal (CMV-luc) ([3]; 10 µM): 10 fold; fold-induction of the luciferase signal (CMV-luc) ([3]; 25 µM): no induction; IC50 (U-937 cells): 1.7 ± 1.1 µM; % inhibition ± SD hDNMT1 (human DNMT1 (hDNMT1)): 100±0.1% |
| CN1C(=O)[C@@]23C[C@]4([C@]56C[C@@]78SS[C@@](CO)(C(=O)N7[C@H]5Nc5ccccc56)N(C)C8=O)c5ccccc5N[C@@H]4N2C(=O)[C@]1(CO)SS3 [chaetocin, reference compound] |  |  |  |  |  | IC50 (Human G9a): 8 µM |
